From patent US7214669B2, “Tetracycline derivatives and methods of use thereof” (Tetragenex Pharmaceuticals, Inc., priority 2001, dated 2007)
pIC50: −log10 of the molar value. Where “and” joins values, the source holds several entries; their conditions need not be identical. Equal values may be shown once. Where a name gives a salt, the structure may show the parent alone.

Columns and labels:
[1] = biological target: Human recombinant MMP14 (Homo sapiens, UniProt P50281); experiment: MMP14 (MTI-MMP) inhibition, 14C collagen release; format: biochemical; conditions: 35° C., 15 hours; read-out: MMP-14 inhibitory activity, IC50
[2] = biological target: T1, Human recombinant MMP1 (Homo sapiens, UniProt P03956); experiment: MMP1 (Collagenase-1) inhibition, 14C collagen release; format: biochemical; conditions: 35° C., 5 hours; read-out: MMP-1 inhibitory activity, IC50
T1 sequence (P03956 100-469): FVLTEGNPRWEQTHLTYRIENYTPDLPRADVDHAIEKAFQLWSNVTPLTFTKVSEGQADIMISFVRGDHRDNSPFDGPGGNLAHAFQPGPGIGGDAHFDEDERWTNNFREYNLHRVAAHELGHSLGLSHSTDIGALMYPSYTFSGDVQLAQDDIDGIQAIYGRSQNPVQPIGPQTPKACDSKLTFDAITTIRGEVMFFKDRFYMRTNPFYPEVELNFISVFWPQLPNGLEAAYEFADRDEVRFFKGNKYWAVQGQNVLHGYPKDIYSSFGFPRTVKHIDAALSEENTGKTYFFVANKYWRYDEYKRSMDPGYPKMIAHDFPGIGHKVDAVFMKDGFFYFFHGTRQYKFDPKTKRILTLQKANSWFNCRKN

[3] = biological target: Human recombinant MMP3 (Homo sapiens, UniProt P08254); experiment: MMP3 (Stromelysin 1) inhibition, 14C casein release; format: biochemical; conditions: 37° C., 16 hours; read-out: MMP-3 inhibitory activity, IC50
Chain of Human recombinant MMP3 (P08254 100-477): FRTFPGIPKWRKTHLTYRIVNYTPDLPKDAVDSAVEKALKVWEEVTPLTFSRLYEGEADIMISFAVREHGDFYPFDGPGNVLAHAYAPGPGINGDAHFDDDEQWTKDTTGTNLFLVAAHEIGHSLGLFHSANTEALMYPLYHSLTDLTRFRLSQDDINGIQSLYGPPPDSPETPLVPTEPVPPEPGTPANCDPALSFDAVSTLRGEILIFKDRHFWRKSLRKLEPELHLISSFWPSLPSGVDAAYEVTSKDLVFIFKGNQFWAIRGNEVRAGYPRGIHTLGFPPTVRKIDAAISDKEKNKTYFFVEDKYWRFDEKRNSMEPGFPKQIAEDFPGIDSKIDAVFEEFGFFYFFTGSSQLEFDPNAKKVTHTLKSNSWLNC

[4] = biological target: T2, MMP2 (Gelatinase A) (Homo sapiens, UniProt P08253); experiment: MMP2 (Gelatinase A) inhibition, 14C gelatin release; format: biochemical; conditions: 37° C., 16 hours; read-out: MMP-2 inhibitory activity, IC50
T2 sequence (P08253 110-660): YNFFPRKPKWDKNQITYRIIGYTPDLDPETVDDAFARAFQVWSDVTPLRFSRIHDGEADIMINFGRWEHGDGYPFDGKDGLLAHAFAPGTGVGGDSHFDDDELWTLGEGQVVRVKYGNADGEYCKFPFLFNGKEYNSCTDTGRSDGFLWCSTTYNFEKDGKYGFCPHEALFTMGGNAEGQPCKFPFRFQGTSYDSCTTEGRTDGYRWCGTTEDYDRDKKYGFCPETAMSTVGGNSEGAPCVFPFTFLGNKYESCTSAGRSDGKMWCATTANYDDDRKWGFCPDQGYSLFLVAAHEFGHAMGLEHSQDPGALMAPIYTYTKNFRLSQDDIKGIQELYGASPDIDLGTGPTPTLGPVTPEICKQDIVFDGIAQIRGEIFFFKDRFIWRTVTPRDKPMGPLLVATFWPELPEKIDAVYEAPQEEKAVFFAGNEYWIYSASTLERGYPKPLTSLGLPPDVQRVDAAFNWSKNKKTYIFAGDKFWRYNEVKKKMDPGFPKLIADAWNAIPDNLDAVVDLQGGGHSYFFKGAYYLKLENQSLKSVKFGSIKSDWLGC

[5] = biological target: Human recombinant MMP9 (Homo sapiens, UniProt P14780); experiment: MMP9 (Gelatinase B) inhibition, 14C gelatin release; format: biochemical; conditions: 37° C., 16 hours; read-out: MMP-9 inhibitory activity, IC50
Chain of Human recombinant MMP9 (P14780 94-707): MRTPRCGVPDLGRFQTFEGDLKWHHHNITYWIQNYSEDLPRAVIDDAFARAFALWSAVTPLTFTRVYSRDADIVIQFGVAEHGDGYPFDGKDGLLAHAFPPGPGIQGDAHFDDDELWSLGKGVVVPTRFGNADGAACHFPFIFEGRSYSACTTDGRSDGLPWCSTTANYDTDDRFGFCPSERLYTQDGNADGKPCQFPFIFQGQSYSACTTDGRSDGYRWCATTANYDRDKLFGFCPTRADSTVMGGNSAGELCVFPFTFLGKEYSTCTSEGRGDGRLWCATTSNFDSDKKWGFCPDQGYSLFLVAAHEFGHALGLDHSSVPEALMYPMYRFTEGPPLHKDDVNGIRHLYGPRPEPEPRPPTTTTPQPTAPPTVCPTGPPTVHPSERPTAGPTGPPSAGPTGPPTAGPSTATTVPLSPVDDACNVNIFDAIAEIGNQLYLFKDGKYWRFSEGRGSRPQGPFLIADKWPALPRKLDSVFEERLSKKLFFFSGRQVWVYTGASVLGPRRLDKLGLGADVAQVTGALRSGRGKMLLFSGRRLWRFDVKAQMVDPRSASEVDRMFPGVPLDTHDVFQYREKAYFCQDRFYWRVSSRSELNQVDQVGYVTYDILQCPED

[6] = test system: RPMI-8226 human myeloma cancer cells; experiment: Membrane Invasion Culture System (MICS) chemo-invasion assay; format: cell-based; conditions: 24 hours, + = increased invasiveness
Excerpt: (§1) Another objective was to analyze the effects of specific, tetracycline derived compounds on the in-vitro chemo-invasive potential of: • C8161 human melanoma cells • MDA-MB-231 human breast cancer cells • PC3 human prostate cancer cells • RPM18226 human myeloma cancer cells • Ark human myeloma cancer cells • Arp-1 human myeloma cancer cells
(§2) The Membrane Invasion Culture System (MICS) in vitro chemo-invasion assay was chosen to measure changes in the invasive potential of specific human cancer cells in response to tetracycline derived compounds. Stock solutions of each compound were hydrated in water containing 2% DMSO and pH 10.0. Upon solubilization, HCl was added to the solution to establish a pH of 7.5–8.0. This solution was then wrapped in foil and kept at 4° C. during the 24 hours of assay. Fresh compound was prepared for each assay. The in vitro chemoinvasion analyses for tumor cell invasiveness are performed using the Membrane Invasion Culture System (MICS) as previously described.
(§3) The MICS system is a thermally treated plastic manifold system consisting of two matched sets of plates containing fourteen wells, 13 mm in diameter. Interposed between these plates was a polycarbonate filter containing 10 μm pores and coated with a defined matrix composed of human laminin/collagen IV/gelatin that formed a 35 μm thick barrier between the top and bottom sections of the wells in MICS. Prior to placing this barrier in place, the lower wells were filled with serum-free RPMI culture medium made 50% in conditioned medium obtained from 2-day-old cultures of human fibroblasts which had been cleared of cells and cellular debris by either centrifugation, or filtering through a 0.45 μm sterile filter. The barrier was then placed on the lower wells and fresh serum-free medium added to the upper wells after assembly of the system. Fifty thousand tumor cells were then added to the wells either in the presence of the compound, or the DMSO vehicle (the controls). Of the 12 assay wells on each manifold, 3 randomized wells acted as controls, 3 wells received 1 μg/ml of compound, 3 received 10 μg/ml and 3 received 25 μg/ml. After 24 hours, cells and media were removed from the lower wells and replaced by phosphate buffered saline plus 2 mM EDTA. This solution was used to remove all cells from the lower well, and this wash was added to the recovered cells plus medium from the same well. These samples were then collected onto a polylysine containing polycarbonate membrane containing 3 μm pores using a Dot-Blot manifold system. These collection filters were then fixed in methanol, and stained using Wright's stain (Leukostat staining kit) in situ. The filters were then mounted on microscope slides with microscope immersion oil (which reduced the light refraction from the pores) and 5 microscopic fields were counted to calculate the number of cells which invaded through the membrane over the 24 hour period. These numbers were then statistically analyzed as discussed below.

[7] = test system: PC-3 ML human prostate cancer cells; experiment: as above; format: cell-based; conditions: 24 hours, + = increased invasiveness
Excerpt: as §1, §2, §3

[8] = test system: MDA-MB-231 human breast cancer cells; experiment: as above; format: cell-based; conditions: 24 hours, + = increased invasiveness
Excerpt: as §1, §2, §3

[9] = test system: C8161 human melanoma cells; experiment: as above; format: cell-based; conditions: 24 hours, + = increased invasiveness
Excerpt: as §1, §2, §3

Compound	pIC50 [1]	pIC50 [2]	pIC50 [3]	pIC50 [4]	pIC50 [5]	percent inhibition, MDA-MB-231 (Breast) ([8]; 1 ug/mL)	percent inhibition, MDA-MB-231 (Breast) ([8]; 10 ug/mL)	percent inhibition, MDA-MB-231 (Breast) ([8]; 25 ug/mL)	percent inhibition, C8161 (Melanoma) ([9]; 1 ug/mL)	percent inhibition, C8161 (Melanoma) ([9]; 10 ug/mL)	percent inhibition, C8161 (Melanoma) ([9]; 25 ug/mL)	further results
7-Cyclobutylmethylamino-6-deoxy-5-hydroxytetracycline H2SO4 [Compound 33]	4.03	3.53	3.69	3.58	3.85	–	–	–	–	–	–	–
CC1c2c(N)cc([N+](=O)[O-])c(O)c2C(=O)C2=C(O)C3(O)C(=O)C(C(N)=O)=C(O)C(N(C)C)C3C(O)C21 (stereo not shown) [Compound 14, 7-Amino-6-deoxy-5-hydroxy-9-nitrotetracycline H2SO4]	3.41	3.55	< 3.00	–	–	–	–	–	–	–	–	–
CCCCN(CCCC)c1ccc(O)c2c1C(C)C1C(=C(O)C3(O)C(=O)C(C(N)=O)=C(O)C(N(C)C)C3C1O)C2=O (stereo not shown) [Compound 17, 7-Di-n-Butylamino-6-deoxy-5-hydroxytetracycline H2SO4]	4.01	3.91	3.46	< 3.00	3.96	–	–	–	–	–	–	–
CCCCCCN(CCCCCC)c1ccc(O)c2c1C(C)C1C(=C(O)C3(O)C(=O)C(C(N)=O)=C(O)C(N(C)C)C3C1O)C2=O (stereo not shown) [Compound 18, 7-Di-n-Hexylamino-6-deoxy-5-hydroxytetracycline H2SO4]	3.99	3.91	3.47	3.63	3.88	–	–	–	–	–	–	–
CC1c2c([N+](=O)[O-])cc(C(C)(C)C)c(O)c2C(=O)C2=C(O)C3(O)C(=O)C(C(N)=O)=C(O)CC3C(O)C21 (stereo not shown) [Compound 40, 7-Nitro-9-tertbutyl-4-dedimethylamino-6-deoxy-5-hydroxy-tetracycline H2SO4]	4.54	3.25	4.04	3.44	–	9%	15%	20^B percent	+1%	+5%	+4%	percent inhibition, RPMI-8226 (Multiple Myeloma) ([6]; 1 ug/mL): 16%; percent inhibition, RPMI-8226 (Multiple Myeloma) ([6]; 10 ug/mL): 11%; percent inhibition, RPMI-8226 (Multiple Myeloma) ([6]; 25 ug/mL): 9%; percent inhibition, PC-3 ML (Prostrate) ([7]; 1 ug/mL): +1%; percent inhibition, PC-3 ML (Prostrate) ([7]; 10 ug/mL): +7%; percent inhibition, PC-3 ML (Prostrate) ([7]; 25 ug/mL): +4%
CC(=O)Nc1cc(N=[N+]=[N-])c(O)c2c1C(C)C1C(=C(O)C3(O)C(=O)C(C(N)=O)=C(O)C(N(C)C)C3C1O)C2=O (stereo not shown) [Compound 42, 7-Acetylamino-9-azido-6-deoxy-5-hydroxy-tetracycline]	3.37	–	2.81	3.22	3.39	–	–	–	–	–	–	–
CC1c2c([N+]#N)cc(C(C)(C)C)c(O)c2C(=O)C2=C(O)C3(O)C(=O)C(C(N)=O)=C(O)C(N(C)C)C3C(O)C21 (stereo not shown) [Compound 43, 9-tertbutyl-6-deoxy-5-hydroxytetracycline-7-diazonium H2SO4]	–	3.22	3.76	2.61	3.50	–	–	–	–	–	–	–
CC1c2c(N)cc(C(C)(C)C)c(O)c2C(=O)C2=C(O)C3(O)C(=O)C(C(N)=O)=C(O)C(N(C)C)C3C(O)C21 (stereo not shown) [Compound 44, 7-Amino-9-tertbutyl-6-deoxy-5-hydroxytetracycline H2SO4]	–	2.84	3.65	2.83	3.23	–	–	–	–	–	–	–
CC1c2c(N=[N+]=[N-])cc(C(C)(C)C)c(O)c2C(=O)C2=C(O)C3(O)C(=O)C(C(N)=O)=C(O)C(N(C)C)C3C(O)C21 (stereo not shown) [Compound 45, 7-Azido-9-tertbutyl-6-deoxy-5-hydroxytetracycline H2SO4]	–	3.42	3.71	2.61	2.18	–	–	–	–	–	–	–
CC1c2ccc(-c3ccc(F)cc3)c(O)c2C(=O)C2=C(O)C3(O)C(=O)C(C(N)=O)=C(O)C(N(C)C)C3C(O)C21 (stereo not shown) [Compound 51, 9-(4-fluorophenyl)-6-deoxy-5-hydroxytetracycline]	–	–	–	–	–	+15^B percent	+18%	25^B percent	+9%	+31^B percent	+122^B percent	percent inhibition, RPMI-8226 (Multiple Myeloma) ([6]; 1 ug/mL): 14%; percent inhibition, RPMI-8226 (Multiple Myeloma) ([6]; 10 ug/mL): +26^B percent; percent inhibition, RPMI-8226 (Multiple Myeloma) ([6]; 25 ug/mL): +2%; percent inhibition, PC-3 ML (Prostrate) ([7]; 1 ug/mL): +4%; percent inhibition, PC-3 ML (Prostrate) ([7]; 10 ug/mL): +13%; percent inhibition, PC-3 ML (Prostrate) ([7]; 25 ug/mL): 4%
CN(C)C1C(O)=C(C(N)=O)C(=O)C2(O)C(O)=C3C(=O)c4c(O)ccc(Cl)c4C(C)(O)C3CC12 (stereo not drawn) [Compound 52, 4-Epi-7-Chlorotetracycline hydrochloride]	–	–	–	–	–	5%	12%	52^B percent	5%	15%	30%	percent inhibition, RPMI-8226 (Multiple Myeloma) ([6]; 10 ug/mL, hydrochloride): 26^B percent and 33^B percent; percent inhibition, RPMI-8226 (Multiple Myeloma) ([6]; 25 ug/mL, hydrochloride): 68^B percent and 46^B percent; percent inhibition, PC-3 ML (Prostrate) ([7]; 1 ug/mL, hydrochloride): 52^B percent and 31^B percent; percent inhibition, PC-3 ML (Prostrate) ([7]; 10 ug/mL, hydrochloride): 68^B percent and 48^B percent; percent inhibition, PC-3 ML (Prostrate) ([7]; 25 ug/mL, hydrochloride): 70^B percent and 63^B percent
CN(C)[C@@H]1C(=O)C(C(N)=O)=C(O)[C@@]2(O)C(=O)C3=C(O)c4c(O)cccc4C[C@H]3C[C@@H]12.Cl [Compound 53, 6-Demethyl-6-deoxytetracycline HCl]	–	–	–	–	–	9%	49^B percent	83^B percent	+40^B percent	+158^B percent	83^B percent	percent inhibition, RPMI-8226 (Multiple Myeloma) ([6]; 1 ug/mL): +95^B percent; percent inhibition, RPMI-8226 (Multiple Myeloma) ([6]; 10 ug/mL): 18%; percent inhibition, RPMI-8226 (Multiple Myeloma) ([6]; 25 ug/mL): 84^B percent; percent inhibition, PC-3 ML (Prostrate) ([7]; 1 ug/mL): 29^B percent; percent inhibition, PC-3 ML (Prostrate) ([7]; 10 ug/mL): 21%; percent inhibition, PC-3 ML (Prostrate) ([7]; 25 ug/mL): 45^B percent
